One experiment has as its system leukotriene B4. Kind of experiment: Guinea Pig Bronchoconstriction, In Vivo (leukotriene B4 challenge). On the set-up: species or system guinea pig (Hartley strain). The conditions noted are these: 0.1 mg/kg test compound dose p.o., 2 hr prior to leukotriene B4 (200 μg/kg i.v.); propranolol 0.1 mg/kg i.v.; male guinea pigs. How it is done:
Guinea Pig Bronchoconstriction, In Vivo
Male guinea pigs (Hartley strain), weighing 300 to 500 g are anesthetized with urethane (2 g/kg) intraperitoneally and a polyethylene cannula is inserted into the jugular vein for drug administration. Tracheal pressure is recorded from a cannula inserted into the trachea and connected to a Gould P231D pressure transducer. After surgical preparation of the animals, a period of time is allowed for pulmonary functions to stabilize. Animals are then paralyzed with succinylcholine (1.2 mg/kg, i.v.) and mechanically respirated (Harvard rodent respirator) at 40 breaths/minute and 2.5 cc tidal volume. The test compound is administered p.o., 2 hr prior to leukotriene B4 administration. Propranolol (0.1 mg/kg) is administered intravenously 5 min prior to leukotriene B4 administration. Animals are then challenged with an intermediate constrictory dose of leukotriene B4 (200 μg/kg), delivered intravenously.
The change (cm H2 O) between pre and peak ventilatory pressure readings is averaged for 6 control and 6 drug treated animals. The percent inhibition is calculated from the formula:
((Control-Drug Treated)/Control)×100
When representative compounds of formulas A, B and C of the invention were utilized as the test compounds, the following results were obtained: […]

The next experiment has as its target T1, LTB4 Receptor (Homo sapiens, UniProt Q15722).
T1 construct: Isolated human neutrophils in Gey's salt solution; endogenous in cells; host or cells: isolated human neutrophils
Kind of experiment: LTB4 Receptor Binding Assay (inhibition of 3H-LTB4 binding, isolated human neutrophils). The conditions noted are these: 0.5 nM 3H-LTB4, 45 minutes on ice, Cheng-Prusoff, read-out: Ki, human neutrophil cells (inhibition of 3H-LTB4 binding). How it is done:
LTB4 Receptor Binding Assay
Binding assays can be performed in microliter wells. Isolated human neutrophils in Gey's salt solution are incubated on ice for 45 minutes with 0.5 nM ^3 H-LTB4 in the presence or absence of test compounds. Assays are terminated by adding 12 ml of ice cold 50 mM Tris buffer (pH 7.4) followed by rapid filtration under vacuum through GF/C filters. Radioactivity is determined by scintillation counting. Non specific binding is defined as the binding not displaced by 100 fold excess of unlabelled LTB4. Specific binding is defined as the difference between total binding and non-specific binding. Non linear analysis of the binding data is performed using LIGAND (Munson and Rodbard, 1980). Ki (Inhibition Constant) values were determined using the Cheng-Prusoff relationship (Cheng and Prusoff, 1973).
When representative compounds of formulas A, B or C of the invention were tested, the results as set forth in Table I and expressed as inhibition of ^3 H-LTB4 binding were obtained.

Usually Ki stands for the equilibrium dissociation constant of an inhibitor or competing ligand from its target.

T1 sequence (Q15722 whole entry): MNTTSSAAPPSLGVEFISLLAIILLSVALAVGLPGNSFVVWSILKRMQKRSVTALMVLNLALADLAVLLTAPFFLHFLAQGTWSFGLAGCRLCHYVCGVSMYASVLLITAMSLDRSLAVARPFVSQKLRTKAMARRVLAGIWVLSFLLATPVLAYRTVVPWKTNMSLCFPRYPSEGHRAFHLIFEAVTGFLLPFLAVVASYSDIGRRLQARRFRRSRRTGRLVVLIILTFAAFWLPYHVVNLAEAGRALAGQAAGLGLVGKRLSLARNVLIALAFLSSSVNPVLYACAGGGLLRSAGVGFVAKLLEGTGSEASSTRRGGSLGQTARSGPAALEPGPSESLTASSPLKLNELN

Turning to `O=C(O)CCCOc1cccc(CCCCCCOc2ccc3c(c2CCCc2ccccc2)OCCC3=O)c1CCC(=O)O` [2-(3-Carboxypropoxy)-6-[6-[[3,4-dihydro-4-oxo-8-(3-phenylpropyl)-2H-1-benzopyran-7-yl]oxy]hexyl]benzenepropanoic Acid], the “% inhibition (of leukotriene B4-induced bronchoconstriction)” value with leukotriene B4 was found to be 67%. Further, on LTB4 Receptor, the Ki amounted to 1 nM.
In the same order, the values of `O=C(O)CCCOc1cccc(CCCCCCOc2ccc3c(c2CCCc2ccccc2)CCCC3=O)c1CCC(=O)O` [2-(3-Carboxypropoxy)-6-[6-[[5,6,7,8-tetrahydro-5-oxo-1-(3-phenylpropyl)-2-naphthalenyl]oxy]hexyl]benzenepropanoic Acid] are 78% and 2 nM.
In the same order, the values of `O=C(O)CCCOc1cccc(CCCCCCOc2ccc3c(c2C/C=C/c2ccccc2)CCCC3=O)c1CCC(=O)O` [(E)-2-(3-Carboxypropoxy)-6-[6-[[5,6,7,8-tetrahydro-5-oxo-1-(3-phenyl-2-propenyl)-2-naphthalenyl]oxy]hexyl]benzenepropanoic Acid] are 64% and 1 nM.

Source of the values: patent US5457124A, “Carboxylic acid Leukotriene B4 antagonists” (Hoffmann-La Roche Inc., priority 1993, dated 1995).
